Each compound was assayed against human recombinant P2X7 receptor (Homo sapiens (Human), UniProt Q99572) (assay: YO-PRO1 uptake assay in HEK cells stably expressing human P2X7). Conditions: HEK-293 cells expressing human recombinant P2X7; 250 μM ATP, 90 minutes; YO-PRO-1 fluorescence; read-out: IC50 (antagonistic activity with respect to the P2X7 receptor).
Format: cell-based
Method: Cell Line Generation and YO-PRO Assay Cell line generation was performed in general according to established molecular cloning protocols. Specifically, RNA was extracted from human whole blood using the Qiagen RNeasy kit (Qiagen, CH) according to the manufacturer's instructions. […] BC011913) was amplified with the following primers: [NT] and [NT] The amplified sequence was subsequently ligated into a pcDNA3.1 (+) NotI, NheI digested plasmid. Human embryonic kidney (HEK) cells (ATCC CRL-1573, Manassas, Va., USA) were transfected with the pcDNA3.1 (+). hP2X7 plasmid using lipofectamine 2000 (Invitrogen AG, CH) according to the manufacturer's instructions. Following a 24 h exposure to DNA, cells were trypsinized and re-seeded at low density in the presence of 250 μg Geneticin. Geneticin resistant cells were then selected during two consecutive rounds of cloning by serial limiting dilution with visual inspection. […] Specific cell clones were chosen based on RNA and protein expression. […] Cells were grown to confluency in adherent culture at 37° C. in a humidified 5% CO2 incubator (split 1⁄5 every 3-4 days with DMEM, 10% FCS, 1% Penicillin/Streptomycin, 250 μg/ml Geneticin). […] Medium was removed from cells and 50 μl of assay buffer containing 0.5 μM YO-[…] was added into the wells. Solutions of antagonist compounds were prepared by serial dilutions of a 10 mM DMSO solution of the antagonist into PBS using a BioMek (Beckman Coulter). Each concentration was performed in duplicate. […] The cells were incubated with the antagonists of the present invention together with ATP at a final concentration of 250 μM for 90 minutes. During this time period, four time points were taken. Each time point comprised the average of several measurements made within a few seconds. Fluorescence was measured in the FLIPR tetra (Molecular Devices) using the filters appropriate for YO-[…] fluorescence (excitation 485/20, emission 530/25). The FLIPR tetra was equipped with Molecular Devices Screen Works system control software to define and run experimental protocols. […] For IC50 measurements the maximum intensity is plotted against the concentration of compound to determine IC50 values.

Chain of human recombinant P2X7 receptor (Q99572 whole entry): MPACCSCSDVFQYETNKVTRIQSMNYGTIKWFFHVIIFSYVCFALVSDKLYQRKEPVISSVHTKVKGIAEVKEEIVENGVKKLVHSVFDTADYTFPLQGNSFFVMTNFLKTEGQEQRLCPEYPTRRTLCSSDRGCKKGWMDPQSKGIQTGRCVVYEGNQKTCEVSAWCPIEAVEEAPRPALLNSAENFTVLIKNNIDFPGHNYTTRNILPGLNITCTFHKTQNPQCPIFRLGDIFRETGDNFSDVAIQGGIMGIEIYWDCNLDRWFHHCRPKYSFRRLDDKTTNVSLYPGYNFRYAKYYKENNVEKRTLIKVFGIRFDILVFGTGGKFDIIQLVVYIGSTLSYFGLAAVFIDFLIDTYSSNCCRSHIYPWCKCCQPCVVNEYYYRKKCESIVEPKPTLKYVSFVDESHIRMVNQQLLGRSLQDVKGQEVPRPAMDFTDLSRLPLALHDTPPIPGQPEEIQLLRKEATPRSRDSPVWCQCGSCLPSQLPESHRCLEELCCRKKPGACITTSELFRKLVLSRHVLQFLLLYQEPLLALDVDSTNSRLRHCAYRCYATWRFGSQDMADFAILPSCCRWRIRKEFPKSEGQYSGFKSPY

In order of falling IC50:
1. Cc1ncc(C(CNC(=O)C2COc3ncsc32)N2CCC(F)(F)CC2)cn1 (centres unmarked) [Example 3, N-(2-(4,4-difluoropiperidin-1-yl)-2-(2-methylpyrimidin-5-yl)ethyl)-5,6-dihydrofuro[2,3-d]thiazole-6-carboxamide]  2040 nM
2. Cc1ncc(C(CNC(=O)C2CCOc3ncsc32)N2CCOCC2)cn1 (centres unmarked) [Example 9, N-(2-(2-methylpyrimidin-5-yl)-2-morpholinoethyl)-6,7-dihydro-5H-pyrano[2,3-d]thiazole-7-carboxamide]  1430 nM
3. Cc1ncc(C(CNC(=O)C2CCc3ncsc32)N2CCOCC2)cn1 (centres unmarked) [Example 6, N-(2-(2-methylpyrimidin-5-yl)-2-morpholinoethyl)-5,6-dihydro-4H-cyclopenta[d]thiazole-6-carboxamide]  1370 nM
4. O=C(NC(CO)C1CCCCCC1)C1COc2ncsc21 (centres unmarked) [Example 1, N-(1-cycloheptyl-2-hydroxyethyl)-5,6-dihydrofuro[2,3-d]thiazole-6-carboxamide]  818 nM
5. O=C(N[C@H](CO)C1CCCCC1)C1CCCCc2ncsc21 (stereo partly drawn) [Example 17, N-((S)-1-cyclohexyl-2-hydroxyethyl)-5,6,7,8-tetrahydro-4H-cyclohepta[d]thiazole-8-carboxamide]  543 nM
6. Cc1ncc(C(CNC(=O)C2CCc3ncsc32)N2CCC(F)(F)CC2)cn1 (centres unmarked) [Example 7, N-(2-(4,4-difluoropiperidin-1-yl)-2-(2-methylpyrimidin-5-yl)ethyl)-5,6-dihydro-4H-cyclopenta[d]thiazole-6-carboxamide]  478 nM
7. O=C(N[C@H](CO)C1CCCCC1)C1CCCCc2ncsc21 (stereo partly drawn) [Example 16, N-((S)-1-cyclohexyl-2-hydroxyethyl)-5,6,7,8-tetrahydro-4H-cyclohepta[d]thiazole-8-carboxamide]  348 nM
8. O=C(N[C@H](CO)C1CCCCC1)C1CCOc2ncsc21 (stereo partly drawn) [Example 8, N-((S)-1-cyclohexyl-2-hydroxyethyl)-6,7-dihydro-5H-pyrano[2,3-d]thiazole-7-carboxamide]  340 nM
9. O=C(NCC(c1ccc(C(F)(F)F)nc1)N1CCOCC1)C1COc2ncsc21 (centres unmarked) [Example 4, N-(2-morpholino-2-(6-(trifluoromethyl)pyridin-3-yl)ethyl)-5,6-dihydrofuro[2,3-d]thiazole-6-carboxamide]  332 nM
10. O=C(N[C@H](CO)C1CCCCC1)C1CCc2ncsc21 (stereo partly drawn) [Example 5, N-((S)-1-cyclohexyl-2-hydroxyethyl)-5,6-dihydro-4H-cyclopenta[d]thiazole-6-carboxamide]  272 nM
11. O=C(NCC(c1ccc(Cl)nc1)N1CCC(F)(F)CC1)C1CCOc2ncsc21 (centres unmarked) [Example 10, N-(2-(6-chloropyridin-3-yl)-2-(4,4-difluoropiperidin-1-yl)ethyl)-6,7-dihydro-5H-pyrano[2,3-d]thiazole-7-carboxamide]  74 nM
12. C[C@@H](NC(=O)C1CCCc2ncsc21)C1CCCCC1 (stereo partly drawn) [Example 11, N-((R)-1-cyclohexylethyl)-4,5,6,7-tetrahydrobenzo[d]thiazole-7-carboxamide]  60 nM
13. O=C(N[C@H](CO)C1CCCCC1)C1CCCc2ncsc21 (stereo partly drawn) [Example 12, N-((S)-1-cyclohexyl-2-hydroxyethyl)-4,5,6,7-tetrahydrobenzo[d]thiazole-7-carboxamide]  41 nM
14. O=C(NCC(c1cnc(C(F)(F)F)nc1)N1CCOCC1)C1CCCc2ncsc21 (centres unmarked) [Example 15, N-(2-morpholino-2-(2-(trifluoromethyl)pyrimidin-5-yl)ethyl)-4,5,6,7-tetrahydrobenzo[d]thiazole-7-carboxamide]  33 nM
15. O=C(NCC1(c2ccc(Cl)nc2)CCCCC1)C1COc2ncsc21 (centres unmarked) [Example 2, N-((1-(6-chloropyridin-3-yl)cyclohexyl)methyl)-5,6-dihydrofuro[2,3-d]thiazole-6-carboxamide]  28 nM
16. O=C(NCC1(c2ccc(Cl)nc2)CCC(F)(F)CC1)C1CCCc2ncsc21 (centres unmarked) [Example 14, N-((1-(6-chloropyridin-3-yl)-4,4-difluorocyclohexyl)methyl)-4,5,6,7-tetrahydrobenzo[d]thiazole-7-carboxamide]  6.3 nM
17. O=C(NCC1(c2ccc(Cl)nc2)CCCCC1)C1CCCc2ncsc21 (centres unmarked) [Example 13, N-((1-(6-chloropyridin-3-yl)cyclohexyl)methyl)-4,5,6,7-tetrahydrobenzo[d]thiazole-7-carboxamide]  3.4 nM
